Values after ≈ are worked out from the molar mass of the structure shown.
Columns and labels:
Mus musculus [1] = test: Compound was tested […] for immunosuppressive activity in the serum free mixed lymphocyte reaction; assay type: functional
Mus musculus [2] = test: In vivo immunosuppressive activity in the delayed type hypersensitivity model induced by SRBC-TH cells in mouse after peroral administration; assay type: functional; details: po

C=C(C/C=C/C(C)(C)O)[C@H]1CC[C@]2(C)[C@@H]1CC[C@@H]1[C@@]3(C)CC[C@H](O)C(C)(C)[C@@H]3CC[C@]12C
IC50 (Mus musculus [1]): 0.8 µg/mL (≈ 1.81 µM) | ED50 (Mus musculus [2]): 10 mg/kg

C=C(C/C=C/C(C)(C)O)[C@@H]1CC[C@]2(C)[C@@H]1CC[C@@H]1[C@@]3(C)CC[C@H](O)C(C)(C)[C@@H]3CC[C@]12C
IC50 (Mus musculus [1]): 0.01 µg/mL (≈ 0.0226 µM) | ED50 (Mus musculus [2]): 0.04 mg/kg

Source: ChEMBL document CHEMBL1131729, “Isolation and synthesis of a novel immunosuppressive 17alpha-substituted dammarane from the flour of the Palmyrah palm (Borassus flabellifer)” (Bioorg Med Chem Lett, 1999)
